Drawing on PubChem BioAssay (NCI), this text covers GI50 and TGI for 13 molecules.

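1) Cells in 96-well plates. 2) Compound, 48 h, 5 concentrations. 3) Linear interpolation between surrounding doses. 4) Unreached endpoint = highest concentration. Here, GI50 denotes the concentration required for 50% inhibition of growth. TGI: total growth inhibition.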

Among the test systems are OVCAR-5 ovarian; SK-MEL-28 melanoma; KM12 colon; SW-620 colon; LOX IMVI melanoma; HT29 colon; NCI-H226 lung; EKVX NSCLC; UACC-62 melanoma; RXF 393 renal.
Holding throughout (assay): inhibition of tumour cell growth, NCI panel, 48 h

Regarding `CCC(c1ccc(OC)cc1)C(CC)c1ccc(O)c(CN2CCCC2)c1` (stereo not given), the GI50 was 12.3 µM with OVCAR-5 ovarian; 2.04 µM in the assay with SK-MEL-28 melanoma; 3.72 µM in the assay with KM12 colon; 2.99 µM in the assay on SW-620 colon; 2.04 µM in the assay on LOX IMVI melanoma; 2.18 µM in the assay with HT29 colon. Moreover, the GI50 in the assay on NCI-H226 lung is 5.9 µM; in the assay with EKVX NSCLC, 5.07 µM; in the assay with UACC-62 melanoma, 2.07 µM; with RXF 393 renal, 2.81 µM. Moreover, the TGI stood at 27.8 µM in the assay with OVCAR-5 ovarian; 4.57 µM in the assay on SK-MEL-28 melanoma; 15.3 µM with KM12 colon; 9.07 µM in the assay with SW-620 colon; 4.74 µM with LOX IMVI melanoma; 5.78 µM in the assay with HT29 colon. The TGI with NCI-H226 lung came out at 24.7 µM; in the assay with EKVX NSCLC, 19.3 µM; with UACC-62 melanoma, 4.97 µM; with RXF 393 renal, 7.55 µM.

For the molecule `CC1=C(/C=C/C2=CC(=C\C(=O)O)/CC(C3=C(C)CCCC3(C)C)C2)C(C)(C)CCC1` (stereo not given), the TGI in the assay with OVCAR-5 ovarian was determined as 29.9 µM; with SK-MEL-28 melanoma, 29.5 µM; with KM12 colon, 24.1 µM; in the assay on SW-620 colon, 29.1 µM; in the assay with LOX IMVI melanoma, 27.6 µM; with HT29 colon it was 28.6 µM. The TGI came out at 23.9 µM with NCI-H226 lung, 23.4 µM in the assay with EKVX NSCLC, 23.1 µM with UACC-62 melanoma and 22.6 µM in the assay on RXF 393 renal.

In the case of `O=C1c2cccc3cc([N+](=O)[O-])cc(c23)C(=O)N1CCN1CCCC1`, the GI50 in the assay on OVCAR-5 ovarian was 1.78 µM; with SK-MEL-28 melanoma, 1.3 µM; in the assay on KM12 colon it was 0.551 µM; in the assay on SW-620 colon, 0.389 µM; in the assay with LOX IMVI melanoma, 0.297 µM; in the assay on HT29 colon it was 0.593 µM. The GI50 in the assay on NCI-H226 lung was 0.193 µM; with EKVX NSCLC, 1.47 µM; in the assay with UACC-62 melanoma, 0.322 µM; in the assay with RXF 393 renal it was 0.839 µM. Besides, the TGI in the assay with OVCAR-5 ovarian was > 19.7 µM; in the assay with SK-MEL-28 melanoma, 2.9 µM; in the assay with KM12 colon, 9.02 µM; in the assay on SW-620 colon it was 5.19 µM; in the assay with LOX IMVI melanoma, 3.27 µM; in the assay on HT29 colon, 7.6 µM. In addition, the TGI stood at 0.632 µM with NCI-H226 lung, 5.7 µM in the assay with EKVX NSCLC, 1.71 µM in the assay with UACC-62 melanoma and 3.01 µM in the assay on RXF 393 renal.

As to `CCCCNC(=O)Oc1ccc2c(=O)c3sc4c(=O)c5ccccc5c(=O)c4c3c(=O)c2c1`, the GI50 is 2.02 µM with OVCAR-5 ovarian; 0.224 µM in the assay with SK-MEL-28 melanoma; 2 µM with KM12 colon; 0.409 µM with SW-620 colon; 0.327 µM in the assay on LOX IMVI melanoma; 2.31 µM in the assay on HT29 colon. Also, the GI50 in the assay on NCI-H226 lung was 1.12 µM; with EKVX NSCLC, 1.38 µM; in the assay with UACC-62 melanoma, 0.17 µM; in the assay on RXF 393 renal, 1.2 µM. Besides, the TGI with OVCAR-5 ovarian is 4.55 µM; in the assay with SK-MEL-28 melanoma, 0.524 µM; in the assay on KM12 colon it was 9.21 µM; in the assay on SW-620 colon, 1.58 µM; in the assay on LOX IMVI melanoma, 1.75 µM; in the assay on HT29 colon it was 5.6 µM. The TGI was 2.47 µM with NCI-H226 lung, 3.57 µM with EKVX NSCLC, 0.336 µM in the assay with UACC-62 melanoma and 2.54 µM in the assay with RXF 393 renal.

As for `O=S(=O)(NCCCNc1cc(-c2cn(-c3ccccc3)nc2-c2cccc(O)c2)ccn1)c1cccc2ccccc12`, the GI50 in the assay with OVCAR-5 ovarian is 8.43 µM; in the assay with SK-MEL-28 melanoma, 2.37 µM; in the assay with KM12 colon, 2.49 µM; in the assay with SW-620 colon, 2.75 µM; in the assay on LOX IMVI melanoma it was 1.56 µM; in the assay on HT29 colon it was 0.508 µM. In addition, the GI50 in the assay with NCI-H226 lung was 3.4 µM; in the assay on EKVX NSCLC, 3.99 µM; in the assay on UACC-62 melanoma it was 2.34 µM; in the assay with RXF 393 renal it was 1.18 µM. Also, the TGI with OVCAR-5 ovarian is > 100 µM; in the assay on SK-MEL-28 melanoma it was 7.33 µM; in the assay on KM12 colon, 7.57 µM; in the assay with SW-620 colon, 10 µM; in the assay on LOX IMVI melanoma, 3.29 µM; in the assay with HT29 colon it was 1.71 µM. Besides, the TGI in the assay on NCI-H226 lung is 45.7 µM; in the assay with EKVX NSCLC, > 100 µM; in the assay with UACC-62 melanoma it was 8.38 µM; in the assay with RXF 393 renal it was 5.04 µM.

For the molecule `CCOC(=O)CNC1C(NC(C)=O)C(OC)OC2COC(c3ccccc3)OC21` (stereo not given), the TGI in the assay with OVCAR-5 ovarian, with SK-MEL-28 melanoma, with KM12 colon, in the assay with SW-620 colon, in the assay with LOX IMVI melanoma and in the assay with HT29 colon was > 100 µM throughout. In addition, the TGI with NCI-H226 lung, in the assay on EKVX NSCLC, with UACC-62 melanoma and in the assay on RXF 393 renal was > 100 µM each time.

In the case of `COc1cccc(-c2nc(-c3ccc(NC(=O)c4ccccc4)cc3)[nH]c2-c2ccnc(Br)c2)c1`, the GI50 is 6.09 µM in the assay with OVCAR-5 ovarian; 3 µM in the assay on SK-MEL-28 melanoma; 2.29 µM with KM12 colon; 3.77 µM with SW-620 colon; 1.13 µM with LOX IMVI melanoma; 2.69 µM with HT29 colon. In addition, the GI50 in the assay on NCI-H226 lung is 2.95 µM; in the assay with EKVX NSCLC, 2.18 µM; with UACC-62 melanoma, 2.95 µM; in the assay on RXF 393 renal it was 0.266 µM. Besides, the TGI is > 100 µM with OVCAR-5 ovarian; > 100 µM in the assay with SK-MEL-28 melanoma; > 100 µM in the assay on KM12 colon; > 100 µM with SW-620 colon; 2.69 µM with LOX IMVI melanoma; > 100 µM in the assay on HT29 colon. For the same molecule, the TGI in the assay on NCI-H226 lung was > 100 µM; in the assay on EKVX NSCLC it was 9.47 µM; in the assay on UACC-62 melanoma, > 100 µM; in the assay on RXF 393 renal, 0.81 µM.

Turning to `NC1=NC(c2ccccc2)CC(c2cc(Cl)cc(Br)c2O)=N1` (stereo not given), the TGI was found to be 34.4 µM with OVCAR-5 ovarian; 28.9 µM with SK-MEL-28 melanoma; 26.1 µM with KM12 colon; 26.2 µM in the assay with SW-620 colon; 27.7 µM with LOX IMVI melanoma; 27 µM in the assay with HT29 colon. In addition, the TGI with NCI-H226 lung stood at 34.3 µM; in the assay on EKVX NSCLC it was 28.2 µM; in the assay with UACC-62 melanoma, 24.6 µM; with RXF 393 renal, 17 µM.

On to `COc1cc2ccc(/C(C)=N/OC(C)=O)cc2cc1OC`, for which the TGI with OVCAR-5 ovarian, in the assay with SK-MEL-28 melanoma, in the assay with KM12 colon, in the assay on SW-620 colon, in the assay with LOX IMVI melanoma and in the assay with HT29 colon was > 100 µM in each case. In addition, the TGI in the assay on NCI-H226 lung, in the assay with EKVX NSCLC, in the assay on UACC-62 melanoma and in the assay with RXF 393 renal was > 100 µM each time.

For `COc1ccccc1N1CCN(C(=O)c2ccc(NS(=O)(=O)c3cccc4cccnc34)cc2)CC1`, the GI50 in the assay with OVCAR-5 ovarian, in the assay with SK-MEL-28 melanoma, in the assay on KM12 colon, in the assay on SW-620 colon, in the assay with LOX IMVI melanoma and in the assay on HT29 colon was > 100 µM throughout. Further, the GI50 in the assay on NCI-H226 lung is > 33.2 µM; with EKVX NSCLC it was > 100 µM; in the assay with UACC-62 melanoma, > 100 µM; in the assay with RXF 393 renal, 5.02 µM. Further, the TGI in the assay on OVCAR-5 ovarian, with SK-MEL-28 melanoma, in the assay with KM12 colon, in the assay on SW-620 colon, with LOX IMVI melanoma and in the assay with HT29 colon was > 100 µM in each case. Further, the TGI was > 100 µM with NCI-H226 lung, > 100 µM with EKVX NSCLC, > 100 µM with UACC-62 melanoma and 59.4 µM in the assay on RXF 393 renal.

Turning to `CC(C)(C)N1CC(OC(N)=O)C1`, the GI50 in the assay with OVCAR-5 ovarian, with SK-MEL-28 melanoma, in the assay with KM12 colon, with SW-620 colon, in the assay with LOX IMVI melanoma and in the assay with HT29 colon was > 100 µM throughout. The GI50 with NCI-H226 lung, in the assay on EKVX NSCLC, with UACC-62 melanoma and in the assay with RXF 393 renal was > 100 µM in each case. Moreover, the TGI in the assay on OVCAR-5 ovarian, in the assay with SK-MEL-28 melanoma, in the assay on KM12 colon, in the assay on SW-620 colon, in the assay on LOX IMVI melanoma and with HT29 colon was > 100 µM in each case. Moreover, the TGI in the assay with NCI-H226 lung, in the assay on EKVX NSCLC, in the assay with UACC-62 melanoma and in the assay on RXF 393 renal was > 100 µM in each case.

For `O=C1C(Cl)=C(Nc2cccc(O)c2)C(=O)N1c1cccc(Cl)c1`, the GI50 in the assay with OVCAR-5 ovarian was 62.5 µM; in the assay with SK-MEL-28 melanoma, 85.7 µM; with KM12 colon, 68.2 µM; in the assay on SW-620 colon, 39 µM; in the assay with LOX IMVI melanoma, 22.4 µM; in the assay with HT29 colon it was 37.3 µM. Also, the GI50 was 26 µM in the assay on NCI-H226 lung, > 100 µM in the assay with EKVX NSCLC, 27 µM in the assay on UACC-62 melanoma and 25.5 µM with RXF 393 renal. Moreover, the TGI is > 100 µM in the assay on OVCAR-5 ovarian; > 100 µM with SK-MEL-28 melanoma; > 100 µM in the assay with KM12 colon; > 100 µM with SW-620 colon; 51.1 µM in the assay with LOX IMVI melanoma; > 100 µM in the assay on HT29 colon. In addition, the TGI was 76.9 µM with NCI-H226 lung, > 100 µM with EKVX NSCLC, > 100 µM with UACC-62 melanoma and > 100 µM with RXF 393 renal.

As to `S=P(c1ccccc1)(c1ccccc1)C1(C2(P(=S)(c3ccccc3)c3ccccc3)CC2)CC1`, the TGI in the assay on OVCAR-5 ovarian, in the assay on SK-MEL-28 melanoma, in the assay with KM12 colon, in the assay with SW-620 colon, with LOX IMVI melanoma and in the assay on HT29 colon was > 100 µM in each case. Further, the TGI in the assay with NCI-H226 lung, in the assay with EKVX NSCLC, with UACC-62 melanoma and in the assay on RXF 393 renal was > 100 µM each time.
